Non-standard residues stand in square brackets, D forms with d. Primed or numbered codes have the meaning given here. No end group written: not given here. β3hY = N[C@H](CC(=O)O)Cc1ccc(O)cc1; Kβ″ = beta-amino acid residue (K); β3hK = NCCCC[C@H](N)CC(=O)O; β3hA = C[C@H](N)CC(=O)O; Yβ = β-tyrosine
Tested on: SJL/J mice exhibiting MBP (85-109) induced relapsing remitting form of EAE
Assay: Therapeutic activity in MBP (85-109) induced relapsing remitting EAE, treatment from day 11
Type: in vivo
Conditions: SJL/J mice, RR EAE; for Therapeutic activity in comparison to GA (Therapeutic activity (Analogs) − Therapeutic activity GA) / Therapeutic activity in comparison to J5 (Therapeutic activity (Analogs) − Therapeutic activity (J5)): 0.1 mg daily for two weeks; for Therapeutic activity = % reduction in cumulative clinical disability score: synthetic peptides, 0.1 mg daily for two weeks from day 11 post-immunization
Protocol: SJL/J and C57BL6/J mice procured from Jackson's laboratory (Bar Harbor, Me.) were maintained under standard housing conditions in the central animal facility at NII as per institutional ethical committee guidelines. 8-10 week old female SJL/J mice were used throughout the study.
To induce RR EAE or chronic progressive EAE, SJL/J or C57BL6/J mice were immunized subcutaneously with 0.2 mg of MBP (85-109) or 0.1 mg MOG (35-55) emulsified in CFA and 200 ng of pertussis toxin was injected intraperitoneally on day 0 and day 2 so as to permeablize the blood brain barrier. All the animals in various experimental groups were scored daily for clinical disability on a scale of 0-6 where 0=no neurological symptoms, 1=limp tail, 2=weakness of hind limbs or ataxia, 3=incomplete paralysis of hind limbs, 4=complete paralysis of hind limbs, 5=complete paralysis of all four limbs, 6=dead. Diseased animals were provided easy access to food and water.
GA, J91, J92, S101, S102, S103 for two weeks and scored for clinical disability.

Substance | Therapeutic activity in comparison to GA (Therapeutic activity (Analogs) − Therapeutic activity GA) | Therapeutic activity in comparison to J5 (Therapeutic activity (Analogs) − Therapeutic activity (J5)) | Therapeutic activity = % reduction in cumulative clinical disability score
KVEAYKAAAβAβ [Analog S56] | −0.4278% | −4.385% | 30.91%
KVEAYKAAAβ^3Aβ^3 (KVEAYKAA[β3hA][β3hA]) [Analog S18] | −3.957% | −7.914% | 27.38%
KVEAYKAAβAβAβ [Analog S57] | 8.021% | 4.064% | 39.36%
KVEAYKAAβ^3Aβ^3Aβ^3 (KVEAYKA[β3hA][β3hA][β3hA]) [Analog S19] | 5.989% | 2.032% | 37.3262%
KVEAYKAβAβAβAβ [Analog S58] | 11.02% | 7.059% | 42.35%
KVEAYKAβ^3Aβ^3Aβ^3Aβ^3 (KVEAYK[β3hA][β3hA][β3hA][β3hA]) [Analog S20] | 16.9% | 12.94% | 48.24%
KVEAYKβ [Analog S66] | −9.412% | −13.369% | 21.93%
KVEAYKβAβAβAβAβ [Analog S59] | 12.94% | 8.984% | 44.28%
KVEAYKβ^3 (KVEAY[β3hK]) [Analog S28] | −7.38% | −11.3369% | 23.96%
KVEAYKβ^3Aβ^3Aβ^3Aβ^3Aβ^3 [Analog S21] | 17.97% | 14.01% | 49.3%
KVEAYβKβ (KVEA[Yβ][Kβ″]) [Analog S67] | −12.9412% | −16.8984% | 18.4%
KVEAYβKβAβAβAβAβ [Analog S60] | 10.05% | 6.096% | 41.39%
KVEAYβ^3Kβ^3 (KVEA[β3hY][β3hK]) [Analog S29] | −1.07% | −5.027% | 30.27%
KVEAYβ^3Kβ^3Aβ^3Aβ^3Aβ^3Aβ^3 [Analog S22] | 17.43% | 13.48% | 48.77%
KVEAβYβKβ [Analog S68] | −5.134% | −9.091% | 26.2%
KVEAβYβKβAβAβAβAβ [Analog S61] | 8.6631% | 4.706% | 40%
KVEAβ^3Yβ^3Kβ^3 [Analog S30] | 0.8556% | −3.102% | 32.19%
KVEAβ^3Yβ^3Kβ^3Aβ^3Aβ^3Aβ^3Aβ^3 [Analog S23] | 22.14% | 18.18% | 53.48%
KVEβAβYβKβ [Analog S69] | −8.877% | −12.8342% | 22.46%

Substance | Therapeutic activity in comparison to GA (Therapeutic activity (Analogs) − Therapeutic activity GA) | Therapeutic activity in comparison to J5 (Therapeutic activity (Analogs) − Therapeutic activity (J5)) | Therapeutic activity = % reduction in cumulative clinical disability score
KVEβAβYβKβAβAβAβAβ [Analog S62] | 5.455% | 1.497% | 36.79%
KVEβ^3Aβ^3Yβ^3Kβ^3 [Analog S31] | −1.818% | −5.7754% | 29.52%
KVEβ^3Aβ^3Yβ^3Kβ^3Aβ^3Aβ^3Aβ^3Aβ^3 [Analog S24] | 20.32% | 16.36% | 51.66%
KVβEβAβYβKβ [Analog S70] | −16.8984% | −20.8556% | 14.4385%
KVβEβAβYβKβAβAβAβAβ [Analog S63] | −9.305% | −13.262% | 22.03%
KVβ^3Eβ^3Aβ^3Yβ^3Kβ^3 [Analog S32] | 11.23% | 7.273% | 42.57%
KVβ^3Eβ^3Aβ^3Yβ^3Kβ^3Aβ^3Aβ^3Aβ^3Aβ^3 [Analog S25] | 22.25% | 18.29% | 53.58%
KβVβEAYβKβ [Analog S72] | −15.9358% | −19.8931% | 15.4%
KβVβEAYβKβAβAβAβAβ [Analog S65] | −5.989% | −9.947% | 25.35%
KβVβEβAβYβKβ [Analog S71] | −14.9519% | −18.9091% | 16.39%
KβVβEβAβYβKβAβAβAβAβ [Analog S64] | −7.38% | −11.3369% | 23.96%
Kβ^3Vβ^3EAYβ^3Kβ^3 [Analog S34] | 25.03% | 21.07% | 56.36%
Kβ^3Vβ^3EAYβ^3Kβ^3Aβ^3Aβ^3Aβ^3Aβ^3 [Analog S26] | 27.91% | 23.96% | 59.25%
Kβ^3Vβ^3Eβ^3AβYβ^3Kβ^3AβAβAβAβ^3 [Analog S81] | 31.12% | 27.17% | 62.46%
Kβ^3Vβ^3Eβ^3AβYβ^3Kβ^3AβAβAβ^3Aβ^3 [Analog S82] | 31.87% | 27.91% | 63.21%
Kβ^3Vβ^3Eβ^3Aβ^3Yβ^3Kβ^3 [Analog S33] | 14.44% | 10.48% | 45.7754%
VEAYK (Peptide analog) [Analog J5c, reference compound] | −9.947% | −13.9037% | 21.39%
VEAYKβ (VEAY[Kβ″]) [Analog S73] | −10.0535% | −14.0107% | 21.28%

— patent publication US20140348861A1, “SYNTHETIC PEPTIDES AND RANDOM COPOLYMERS FOR THE TREATMENT OF AUTOIMMUNE DISORDERS” (NATIONAL INSTITUTE OF IMMUNOLOGY, priority 2011, published 2014)
